{"source": "patent US9862713B2", "about": "“Substituted bicyclic heteroaryl compounds as RXR agonists” (CONNEXIOS LIFE SCIENCES PVT. LTD., priority 2014, dated 2018)", "key": {"DIO mice": {"test_system": "DIO mice", "experiment": "Effect of RXR agonist on DIO mice (high fat diet)", "assay_type": "in vivo, male C57BL/6J mice", "protocol": "Six week old male C57BL/6J mice were selected, acclimatized for a period of 1 week, Animals were assigned to either chow (10% kcal from fat) or high fat diet (HFD) (D12492; 60% kcal from fat), Research Diets, Inc., New Jersey, USA. Animals were housed in polypropylene cages and maintained at 23±1° C. at 60±10% humidity and 12 hour cycles of light and dark with free access to feed and water (ad libitum). After 11 weeks of the diet intervention, the HFD fed animals were assigned to specific treatment groups based upon body weight, glucose AUC during OGTT, fasting and fed blood glucose and fasting TG. The lean control mice (n=10) were fed with normal chow diet while the treatment group (n=10) and HFD Control (n=10) with high fat diet throughout the experimental period. Treatment group received Compound 40 at a dose of 5-20 mg/kg b.wt, once daily, po as suspension in 1% MC (methyl cellulose) as vehicle. Lean control and HFD controls animals were administered with vehicle.\nWeekly body weight & daily feed consumption was recorded. The blood collected from tail vein was subjected for estimation of glucose and TG using Co-agucheck TG strip. OGTT was performed in 6 h fasted mice with 2 g/kg, of oral glucose challenge after 9 weeks of treatment.\nMeasurement of Thermogenesis: Body temperatures were assessed at the end of treatment period using a rectal probe. For the cold exposure experiment, mice were housed individually and transferred to a cold environment with an ambient temperature of 4° C. Temperature was measured every 15 min for 75 min and then brought to room temperature, then rectal temperature was measured for further 20 min with 10 min interval. After 10 weeks of treatment, blood was collected, from retro-orbital bleeding, for biochemical measurements. Then animals were euthanized and necropsied, the liver was excised immediately, weighed and taken to estimate liver triglyceride (TG). Different adipose depots were separated and weighed.\nAnimals were sacrificed after terminal measurement of fasting glycerol, free fatty acid, cholesterol, LDL levels."}, "astrocytes": {"test_system": "astrocytes", "experiment": "Astrocytes treated with PMA and LPS: ROS levels and inflammation markers", "assay_type": "cell-based", "conditions": "48 h", "protocol": "Furthermore, cultured astrocytes were treated with phorbol-12-myristate-13-acetate (PMA) and Lipopolysaccharides (LPS) alone or with test molecule for 48 h to measure ROS levels. To evaluate the effect on inflammation markers, astrocytes were treated with PMA and test molecule for 48 h."}, "[1]": {"test_system": "mouse neuronal cells (N2A cells)", "experiment": "Cholesterol-treated neuronal cells (N2A), in vitro data for Alzheimer's disease", "assay_type": "cell-based", "conditions": "320 uM cholesterol", "protocol": "In order to study the impact of Compound 40 on Alzheimer's Disease, cultured mouse neuronal cells (N2A cells) were treated with 320 uM cholesterol alone or with test molecule for 24 h. Cholesterol was removed and treatment is continued for 24 h. Cholesterol content in the cells was measured by biochemical methods, normalized to total protein. For gene expression studies, cells were treated with 320 uM cholesterol alone or with test molecule for 48 h. RNA was made and later converted to cDNA and the gene expression was measured. […] These cellular events lead to reduced plaque formation and improvement in the health of neuronal cells."}, "male ZDF rats": {"test_system": "male ZDF rats", "experiment": "Effect of RXR agonist on male ZDF rats", "assay_type": "in vivo", "conditions": "10 mg/kg, BID, po", "protocol": "Five week old male ZDF rats from Charles River & age matched control rats were housed under temperature 22±3° C., relative humidity 50-70%, 12 hour light and 12 hour dark cycle with artificial fluorescent tubes. The animals were housed in a group of 3 in standard polypropylene cages with stainless steel top grill having facilities for pelleted food and drinking water in bottle. The animals were fed with normal chow diet (Provomi), Bisleri, commercially available mineral drinking water was provided ad libitum. The lean control and the male […] rats were randomized to either vehicle or drug (Compound 40, 10 mg/kg, BID, po) treatment groups by body weight, fed glucose and glucose. The treatment was continued for 8 weeks. Body weight, fasting and fed glucose and fast triglycerides (tail snip) were monitored weekly. At the end of week 8 of the treatment, glucose and insulin HbAlc levels were followed at different time intervals. Blood samples collected from tail nipping method HbAlc levels by DCA vantage (SIEMENS).\nMeasurement of Nerve conduction velocity: Nerve conduction velocity was measured using Electronic stimulator connected to AD Power Lab 8/30, AD instruments. Briefly animals were anaesthetized and three different electrodes (+ve, −ve and neutral) were connected from Bio amp to animal. +ve electrode was placed on front side of fourth finger on hind paw, −ve electrode was placed just above +ve electrode at a distance of 10 mm and neutral electrode was placed on abdomen region. Voltage at a rate of 5 mv with pulse width of 0.001 sec was provided on two different regions at a distance of 1 cm on sciatic nerve. Nerve conduction was recorded using Lab chart software in scope view panel. Latencies at two different points were measured by taking the mouse cursor at the beginning of peaks. […] Measurement of Hemodynamic Parameters by Using Millar MPVS System:\nAt the end of 22 weeks of treatment period animal were subjected to hemodynamic measurement using Millar MPVS system, briefly animal was anesthetized using urethane and all surgical procedure was done on thermal plate, both jugular vein and carotid artery was cannulated in which jugular vein was used for saline calibration whereas rat millar Cather was introduced into left ventricle through carotid artery was be used for recording the Pressure volume loop. Blood was withdrawn from the tail vein puncture by pricking with needle into pre-filled EDTA tubes, mix and placed on ice immediately, centrifuge at 10000 rpm for 10 minutes using cold centrifuge. The plasma separated was subjected for estimation of ANP, BNP, Osteprotegerin Using USCN kit and Serum urea and BUN using Robonik kit."}, "[2]": {"test_system": "HL-60 promyelocytic leukemia cell line", "experiment": "HL-60 differentiation (NBT reduction)", "assay_type": "cell-based", "conditions": "72 h culture", "protocol": "Progression of promyelocytic leukemia can be abrogated by their differentiation. […] In order to estimate the differentiating ability of compound-40, HL-60 promyelocytic leukemia cell line was used as an in vitro model of the disease. HL-60 cells were cultured for 72 h as either control or under treatment as mentioned. After 72 h of culture, cells were exposed to nitro blue tetrazolium (NBT) solution containing phorbol myristate acetate (PMA) for 1 h at 37° C. Differentiated cells have increased oxidative burst potential which reduces NBT. Levels of reduced NBT were measured at 540 nm absorption."}, "[3]": {"conditions": "5-20 mg/kg b.wt, once daily, po"}, "[4]": {"conditions": "5-20 mg/kg b.wt, once daily, po, 10 weeks"}, "[5]": {"conditions": "5-20 mg/kg b.wt, once daily, po, OGTT after 9 weeks"}}, "data": [{"molecule": "CC1(C)CCC(C)(C)c2sc(N(CC3CC3)c3ccc(C(=O)O)cn3)nc21", "note": "[Compound 40, 6-[(Cyclopropylmethyl) (4,4,7,7-tetramethyl-4,5,6,7-tetrahydro-1,3-benzothiazol-2-yl)amino]pyridine-3-carboxylic acid]", "values": [{"measurement": "HOMA-IR", "setting": "DIO mice; [3]", "result": "improves HOMA-IR"}, {"measurement": "UCP1 expression levels in inguinal white adipose tissues", "setting": "DIO mice; [3]", "result": "significantly enhances"}, {"measurement": "circulating free fatty acid levels", "setting": "DIO mice; [3]", "result": "significant decrease"}, {"measurement": "circulating glycerol levels", "setting": "DIO mice; [3]", "result": "significant decrease"}, {"measurement": "ectopic fat accumulation", "setting": "DIO mice; [3]", "result": "without increasing ectopic fat accumulation"}, {"measurement": "fasting TG", "setting": "DIO mice; [3]", "result": "significantly reduces fasting TG"}, {"measurement": "fed cholesterol levels", "setting": "DIO mice; [3]", "result": "significantly reduces fed cholesterol levels"}, {"measurement": "adipose depot weights", "setting": "DIO mice; [4]", "result": "decrease in various adipose depot weights"}, {"measurement": "body weight gain", "setting": "DIO mice; [4]", "result": "significantly reduced body weight gain"}, {"measurement": "glucose disposal (OGTT)", "setting": "DIO mice; [5]", "result": "improves glucose disposal"}, {"measurement": "hyperinsulinemia (insulin levels)", "setting": "DIO mice; [5]", "result": "significantly reduces hyperinsulinemia"}, {"measurement": "non-shivering thermogenesis", "setting": "DIO mice; cold exposure 4° C., rectal temperature", "result": "significantly enhances non-shivering thermogenesis"}, {"measurement": "oxidative stress (ROS levels)", "setting": "astrocytes; PMA and LPS", "result": "reduce both oxidative stress"}, {"measurement": "inflammation (IL6 secretion and expression, expression of IL1b, COX2 and MCP1)", "setting": "astrocytes; PMA", "result": "reduce inflammation"}, {"measurement": "apoptosis (Caspase activity)", "setting": "[1]", "result": "decreased apoptosis"}, {"measurement": "cholesterol accumulation (cholesterol content in the cells)", "setting": "[1]", "result": "reduced cholesterol accumulation"}, {"measurement": "oxidative stress (ROS levels)", "setting": "[1]", "result": "reduced oxidative stress"}, {"measurement": "cholesterol efflux (ABCA1 and ABCG1 expression)", "setting": "[1]; 48 h", "result": "increased the cholesterol efflux"}, {"measurement": "CRP levels", "setting": "male ZDF rats", "result": "decreasing CRP levels"}, {"measurement": "HbAlc levels", "setting": "male ZDF rats", "result": "very significant improvement"}, {"measurement": "activity of SDH (glucose oxidation in muscle)", "setting": "male ZDF rats", "result": "significantly increased the activity of SDH"}, {"measurement": "fasting TG levels", "setting": "male ZDF rats", "result": "significantly reduces fasting TG levels"}, {"measurement": "fasting glucose", "setting": "male ZDF rats", "result": "significant control of Fasting glucose"}, {"measurement": "glucose disposal", "setting": "male ZDF rats", "result": "improves glucose disposal"}, {"measurement": "hyperinsulinemia (insulin levels)", "setting": "male ZDF rats", "result": "significantly reduced hyperinsulinemia"}, {"measurement": "levels of biomarkers of Cardio vascular risk", "setting": "male ZDF rats", "result": "improvement in levels of biomarkers of Cardio vascular risk"}, {"measurement": "prandial hyperglycemia (fed glucose)", "setting": "male ZDF rats", "result": "both an early onset and sustained control of prandial hyperglycemia"}, {"measurement": "Cardiac function", "setting": "male ZDF rats; Millar MPVS hemodynamic measurement", "result": "Substantial improvement"}, {"measurement": "BUN levels", "setting": "male ZDF rats; end of 22 weeks", "result": "Substantial decrease"}, {"measurement": "Serum Creatinine levels", "setting": "male ZDF rats; end of 22 weeks", "result": "Substantial decrease"}, {"measurement": "hypertriglyceridemia", "setting": "male ZDF rats; fasting TG during treatment and there after", "result": "does not cause hypertriglyceridemia"}, {"measurement": "Nerve conduction velocity (NCV)", "setting": "male ZDF rats; sciatic nerve", "result": "Significant improvement"}, {"measurement": "HL-60 cells differentiation", "setting": "[2]; NBT reduction at 540 nm", "result": "significantly increased"}, {"measurement": "HL-60 differentiation in combination with ATRA", "setting": "[2]; together with ATRA", "result": "additive effect with ATRA"}]}]}
